Assay results: ChEMBL document CHEMBL1135303, “Design and synthesis of aminophenol-based factor Xa inhibitors” (Bioorg Med Chem Lett, 2002)

What was measured:
[1] = target: T1, Prothrombin (Homo sapiens, UniProt P00734); experiment: Concentration required to double the prothrombin based clotting time in human plasma; format: functional, cell-free
[2] = target: T2, Serine protease 1 (Bos taurus, UniProt P00760); experiment: Competitive inhibition of trypsin
T2 sequence (P00760 whole entry): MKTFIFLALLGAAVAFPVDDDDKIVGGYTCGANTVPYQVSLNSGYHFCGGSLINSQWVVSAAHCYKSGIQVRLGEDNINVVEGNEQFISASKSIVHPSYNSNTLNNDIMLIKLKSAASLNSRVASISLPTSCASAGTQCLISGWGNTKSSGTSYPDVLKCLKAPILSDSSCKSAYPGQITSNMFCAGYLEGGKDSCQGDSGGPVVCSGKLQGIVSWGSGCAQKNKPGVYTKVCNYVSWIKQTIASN

[3] = target: Coagulation factor X (Homo sapiens, UniProt P00742); experiment: Competitive inhibition of coagulation factor Xa
[4] = target: T1, Prothrombin; experiment: Competitive inhibition of coagulation factor IIa
[5] = target: Serine protease 1 (Homo sapiens) (UniProt P07477); experiment: The selectivity ratio for Trypsin and Coagulation factor Xa was determined
[6] = target: T1, Prothrombin; experiment: Concentration required for twofold increase in thrombin clotting time in human plasma; format: functional, cell-free

| Compound | Concentration [1] [µM] | Ki [2] [nM] | Ki [3] [nM] | Ki [4] [nM] | Ratio [5] | Concentration [6] [µM] |
| --- | --- | --- | --- | --- | --- | --- |
| CCOC(=O)CCC(=O)N(C/C=C/c1cccc(C(=N)N)c1)c1ccc(OC2CCN(C(C)=N)CC2)c(C(F)(F)F)c1 | 0.87 | 76 | 0.55 | 1000 | 140 | 32 |
| CN1CCC(Oc2ccc(N(C/C=C/c3cc(C(=N)N)ccc3O)C(=O)CCC(=O)O)cc2C(F)(F)F)CC1 |  | 765 | 0.28 | > 5000 |  |  |
| CC(=N)N1CCC(Oc2ccc(NCc3cccc(-c4cccc(C(=N)N)c4)c3)cc2[N+](=O)[O-])CC1 |  | 42 | 0.17 | 400 |  |  |
| CC(=N)N1CCC(Oc2ccc(NC/C=C/c3cc(C(=N)N)ccc3O)cc2C(F)(F)F)CC1 | 1.05 | 200 | 0.1 | 1100 | 2000 | 210 |
| CS(=O)(=O)N1CCC(Oc2ccc(NC/C=C/c3cc(C(=N)N)ccc3O)cc2C(F)(F)F)CC1 |  | 1250 | 44 |  |  |  |
| CC(=O)N1CCC(Oc2ccc(NC/C=C/c3cc(C(=N)N)ccc3O)cc2C(F)(F)F)CC1 | 21 | 830 | 18.5 | 480 |  | 151 |
| CCOC(=O)CCC(=O)N(C/C=C/c1cc(C(=N)N)ccc1O)c1ccc(OC2CCN(C(C)=N)CC2)c(C(F)(F)F)c1 | 0.8 | 230 | 0.07 | 2280 | 3300 | 265 |
| CC(=N)N1CCC(Oc2ccc3c(nc(C)n3Cc3ccc4ccc(C(=N)N)cc4c3)c2[N+](=O)[O-])CC1 |  | 3 | 0.3 | 5000 |  |  |
| CCOC(=O)c1cc(NC/C=C/c2cccc(C(=N)N)c2)ccc1OC1CCN(C(C)=N)CC1 | 2.6 | 40 | 6.8 | 480 |  | 15 |
| CC(=N)N1CCC(Oc2ccc(NC/C=C/c3cccc(C(=N)N)c3)cc2)CC1 |  | 80 | 7.5 | 5000 |  |  |
| CC(=N)N1CCC(Oc2ccc(NC/C=C/c3cccc(C(=N)N)c3)cc2[N+](=O)[O-])CC1 |  | 27 | 0.27 | 2900 |  |  |
| N=C(N)c1ccc(O)c(/C=C/CN(C(=O)CCC(=O)O)c2ccc(OC3CCN(CC(=O)O)CC3)c(C(F)(F)F)c2)c1 |  | 870 | 0.34 | > 5000 |  |  |
| CC(=N)N1CCC(Oc2ccc(NCc3ccc4ccc(C(=N)N)cc4c3)cc2[N+](=O)[O-])CC1 |  | 7 | 0.08 | 1960 |  |  |
| CC(=N)N1CCC(Oc2ccc(N(C/C=C/c3cccc(C(=N)N)c3)C(=O)c3ccc(C(=O)O)c(C(=O)O)c3)cc2C(F)(F)F)CC1 | 0.52 | 10 | 0.56 | 3260 |  | 200 |
| N=C(N)c1ccc(O)c(/C=C/CNc2ccc(OC3CCN(C(N)=O)CC3)c(C(F)(F)F)c2)c1 |  | 520 | 7.3 | 250 |  |  |
| CC(=N)N1CCC(Oc2ccc(N(C/C=C/c3cc(C(=N)N)ccc3O)C(=O)CCC(=O)O)cc2C(F)(F)F)CC1 | 0.54 | 280 | 0.1 | 5140 | 2800 | 174 |
| CC(=N)N1CCC(Oc2ccc(N(C/C=C/c3cccc(C(=N)N)c3)C(=O)CCC(=O)O)cc2C(F)(F)F)CC1 | 0.75 | 110 | 0.28 | 5000 |  | 540 |
| CC(=N)N1CCC(Oc2ccc(NC/C(C)=C/c3cccc(C(=N)N)c3)cc2[N+](=O)[O-])CC1 |  | 5 | 0.07 | 1550 |  |  |
| CC(=N)N1CCC(Oc2ccc(NC/C=C/c3cccc(C(=N)N)c3)cc2F)CC1 | 0.73 | 70 | 4.1 | 4700 |  | 240 |
| CN1CCC(Oc2ccc(NC/C=C/c3cc(C(=N)N)ccc3O)cc2C(F)(F)F)CC1 | 0.98 | 630 | 0.58 | 1820 |  | 156 |
| CC(=O)N1CCC(Oc2ccc(N(C/C=C/c3cc(C(=N)N)ccc3O)C(=O)CCC(=O)O)cc2C(F)(F)F)CC1 | 3 | 891 | 3 | > 5500 |  | 173 |
| CC(=N)N1CCC(Oc2ccc(NC/C=C/c3cccc(C(=N)N)c3)cc2C(F)(F)F)CC1 | 0.8 | 50 | 0.88 | 2140 |  | 220 |
